Source: patent US12083101B2, “Biaryl derivatives as YAP/TAZ-TEAD protein-protein interaction inhibitors” (Novartis AG, priority 2020, dated 2024)
Where a name gives a salt, the structure may show the parent alone.

Target: Avi-humanTEAD4 217-434 / Cy5 labeled humanYAP 60-100 (Homo sapiens (Human), UniProt Q15561)
Assay: TR-FRET YAP-TEAD4 in-vitro biochemical assay
Assay type: binding
Details: 1 nM Avi-humanTEAD4 217-434, 20 nM Cy5-humanYAP 60-100, 1 h room temperature
Experimental: N-terminus Cy5 labeled humanYAP^60-100 (20 nM) was then added to this preparation. Compounds were dissolved at 10 mM in 100% DMSO and serial dilutions were made in 100% DMSO. The diluted compound solutions were incubated in white 384-well plates (Greiner Bio-One) for 1 h at room temperature with the above described mix. The final DMSO concentration present in the assay was 1%. […] The IC50 values were estimated by fitting the data by nonlinear fit regression (GraphPad Prism).

Chain of Avi-humanTEAD4 217-434 / Cy5 labeled humanYAP 60-100 (Q15561 217-434): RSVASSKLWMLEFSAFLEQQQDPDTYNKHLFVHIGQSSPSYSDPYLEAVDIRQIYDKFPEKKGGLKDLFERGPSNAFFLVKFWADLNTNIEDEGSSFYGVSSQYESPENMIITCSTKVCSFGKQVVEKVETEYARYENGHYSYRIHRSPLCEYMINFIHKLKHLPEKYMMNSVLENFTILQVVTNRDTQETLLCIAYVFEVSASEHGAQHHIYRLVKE

| Compound | IC50 |
| --- | --- |
| NC(=O)c1ccc(OC(F)F)c(F)c1-c1c(Cl)c(F)cc2c1C[C@@](CN[C@H]1C[C@H](COC(F)F)C1)(c1ccccc1)O2 (atropisomer, axis not shown) [Example 80, 2-((2S,4S)-5-chloro-2-(((trans-3-((difluoromethoxy)methyl)cyclobutyl)amino)methyl)-6-fluoro-2-phenyl-2,3-dihydrobenzofuran-4-yl)-4-(difluoromethoxy)-3-fluorobenzamide] | 14 nM |
| NC[C@@]1(c2ccccc2)Cc2c(ccc(Cl)c2-c2c(F)cccc2C(N)=O)O1 (stereo in doubt) [Example 4a, 2-((2S*,4S*)-2-(Aminomethyl)-5-chloro-2-phenyl-2,3-dihydrobenzofuran-4-yl)-3-fluorobenzamide] | 34 nM |
| COc1ccc(C(=O)NC2CC2)c(-c2c(Cl)ccc3c2C[C@@](CN)(c2ccccc2)O3)c1F (atropisomer, axis not shown) [Example 23, 2-((2S,4S)-2-(aminomethyl)-5-chloro-2-phenyl-2,3-dihydrobenzofuran-4-yl)-N-cyclopropyl-3-fluoro-4-methoxybenzamide] | 9 nM |
| NC(=O)c1ccc(OC(F)F)c(F)c1-c1c(Cl)c(F)cc2c1C[C@@](CN[C@H]1C[C@H](F)C1)(c1ccccc1)O2 (atropisomer, axis not shown) [Example 82, 2-((2S,4S)-5-chloro-6-fluoro-2-(((trans-3-fluorocyclobutyl)amino)methyl)-2-phenyl-2,3-dihydrobenzofuran-4-yl)-4-(difluoromethoxy)-3-fluorobenzamide] | 119 nM |
| NC(=O)c1ccc(OC(F)F)c(F)c1-c1c(Cl)c(F)cc2c1C[C@@](CNC1CC3(CC(O)C3)C1)(c1ccccc1)O2 (single isomer, unassigned) [Example 85b] | 7 nM |
| NC[C@]1(c2ccccc2)Oc2ccc(Cl)c(-c3c(C(N)=O)ccc(OC(F)F)c3F)c2[C@@H]1O (atropisomer, axis not shown) [Example 87, 2-((2S,3S,4S)-2-(aminomethyl)-5-chloro-3-hydroxy-2-phenyl-2,3-dihydrobenzofuran-4-yl)-4-(difluoromethoxy)-3-fluorobenzamide] | 30 nM |
| NC[C@@]1(c2ccccc2)Cc2c(ccc(Cl)c2-c2c(C(N)=O)ccc(OCC(=O)O)c2F)O1 (atropisomer, axis not shown) [Example 16, 2-(3-((2S,4S)-2-(aminomethyl)-5-chloro-2-phenyl-2,3-dihydrobenzofuran-4-yl)-4-carbamoyl-2-fluorophenoxy)acetic acid trifluoroacetate salt] | 6 nM |
| CS(=O)(=O)COc1ccc(C(N)=O)c(-c2c(Cl)c(F)cc3c2C[C@@](CN)(c2ccccc2)O3)c1F (atropisomer, axis not shown) [Example 40, 2-((2S,4S)-2-(aminomethyl)-5-chloro-6-fluoro-2-phenyl-2,3-dihydrobenzofuran-4-yl)-3-fluoro-4-((methylsulfonyl)methoxy)benzamide] | 42 nM |
| NC[C@]1(c2ccccc2)Cc2c(ccc(Cl)c2-c2c(F)cccc2C(N)=O)O1 (stereo in doubt) [Example 4b, 2-((2S*,4R*)-2-(aminomethyl)-5-chloro-2-phenyl-2,3-dihydrobenzofuran-4-yl)-3-fluorobenzamide] | > 100000 nM |
| CS(=O)(=O)NC1CCC(NC[C@@]2(c3ccccc3)Cc3c(cc(F)c(Cl)c3-c3c(C(N)=O)ccc(OC(F)F)c3F)O2)CC1 (single isomer, unassigned) [Example 57a] | 3 nM |
| NC(=O)c1ccc(OC(F)F)c(F)c1-c1c(Cl)c(F)cc2c1C[C@@](CNC1CCC(CO)CC1)(c1ccccc1)O2 (single isomer, unassigned) [Example 61a] | 8 nM |
| COCCNC[C@@]1(c2ccccc2)Cc2c(cc(F)c(Cl)c2-c2c(C(N)=O)ccc(OC(F)F)c2F)O1 (atropisomer, axis not shown) [Example 77, 2-((2S,4S)-5-chloro-6-fluoro-2-(((2-methoxyethyl)amino)methyl)-2-phenyl-2,3-dihydrobenzofuran-4-yl)-4-(difluoromethoxy)-3-fluorobenzamide] | 71 nM |
| CS(=O)(=O)N1CCC(NC[C@@]2(c3ccccc3)Cc3c(cc(F)c(Cl)c3-c3c(C(N)=O)ccc(OC(F)F)c3F)O2)CC1 (atropisomer, axis not shown) [Example 63, 2-((2S,4S)-5-chloro-6-fluoro-2-(((1-(methylsulfonyl)piperidin-4-yl)amino)methyl)-2-phenyl-2,3-dihydrobenzofuran-4-yl)-4-(difluoromethoxy)-3-fluorobenzamide] | 69 nM |
| C[C@]1(O)CC[C@H](NC[C@@]2(c3ccccc3)Cc3c(cc(F)c(Cl)c3-c3c(C(N)=O)ccc(OCc4ncccn4)c3F)O2)CC1 (atropisomer, axis not shown) [Example 71a, 2-((2S,4S)-5-chloro-6-fluoro-2-((((trans)-4-hydroxy-4-methylcyclohexyl)amino)methyl)-2-phenyl-2,3-dihydrobenzofuran-4-yl)-3-fluoro-4-(pyrimidin-2-ylmethoxy)benzamide] | 2 nM |
| NCCOc1cccc(F)c1-c1c(Cl)ccc2c1C[C@](CN)(c1ccccc1)O2 [Example 3b, 2-(2-((2R,4R)-2-(aminomethyl)-5-chloro-2-phenyl-2,3-dihydrobenzofuran-4-yl)-3-fluorophenoxy)ethanamine] | 18000 nM |
| C[C@@H]1C[C@@H](NC[C@@]2(c3ccccc3)Cc3c(cc(F)c(Cl)c3-c3c(C(N)=O)ccc(OCCO)c3F)O2)C[C@H](C)O1 (atropisomer, axis not shown) [Example 65b, 2-((2S,4S)-5-chloro-2-((((2R,4s,6S)-2,6-dimethyltetrahydro-2H-pyran-4-yl)amino)methyl)-6-fluoro-2-phenyl-2,3-dihydrobenzofuran-4-yl)-3-fluoro-4-(2-hydroxyethoxy)benzamide] | 455 nM |

Now from value to molecule:

| IC50 | Compound |
| --- | --- |
| 4 nM | CNC[C@]1(c2ccccn2)Oc2cc(F)c(Cl)c(-c3c(C(N)=O)ccc(OCCOC)c3F)c2[C@@H]1C (atropisomer, axis not shown) [Example 111, 2-((2R,3S,4S)-5-chloro-6-fluoro-3-methyl-2-((methylamino)methyl)-2-(pyridin-2-yl)-2,3-dihydrobenzofuran-4-yl)-3-fluoro-4-(2-methoxyethoxy)benzamide] |
| 695 nM | NCC1(c2ccccc2)Oc2ccc(Cl)c(-c3c(F)cccc3C(N)=O)c2O1 (single isomer, unassigned) [Example 133, 2-(2-(Aminomethyl)-5-chloro-2-phenylbenzo[d][1,3]dioxol-4-yl)-3-fluorobenzamide] |
| 1290 nM | NC[C@@]1(c2ccccc2)Cc2c(ncc(Cl)c2-c2c(F)cccc2C(N)=O)O1 (atropisomer, axis not shown) [Example 131, 2-((2S,4S)-2-(Aminomethyl)-5-chloro-2-phenyl-2,3-dihydrofuro[2,3-b]pyridin-4-yl)-3-fluorobenzamide] |
| 7 nM | CO[C@H]1CC[C@@H](NC[C@]2(c3ccccc3)Oc3cc(F)c(Cl)c(-c4c(C(N)=O)ccc(OC(F)F)c4F)c3[C@@H]2O)CC1 (relative stereo) [Example 136a, 2-((2S,3S,4S)-5-Chloro-6-fluoro-3-hydroxy-2-((((cis)-4-methoxycyclohexyl)amino)methyl)-2-phenyl-2,3-dihydrobenzofuran-4-yl)-4-(difluoromethoxy)-3-fluorobenzamide] |
| 2 nM | C[C@H]1c2c(cc(F)c(Cl)c2-c2c(C(N)=O)ccc(OCCO)c2F)O[C@]1(CN)c1ccccc1 (atropisomer, axis not shown) [Example 107, 2-((2S,3S,4S)-2-(aminomethyl)-5-chloro-6-fluoro-3-methyl-2-phenyl-2,3-dihydrobenzofuran-4-yl)-3-fluoro-4-(2-hydroxyethoxy)benzamide] |
| 1 nM | COCCOc1ccc(C(N)=O)c(-c2c(Cl)c(F)cc3c2[C@H](C)[C@@](CN[C@H]2CC[C@@](C)(O)CC2)(c2ccccc2)O3)c1F (atropisomer, axis not shown) [Example 116b, 2-((2S,3S,4S)-5-chloro-6-fluoro-2-((((cis)-4-hydroxy-4-methylcyclohexyl)amino)methyl)-3-methyl-2-phenyl-2,3-dihydrobenzofuran-4-yl)-3-fluoro-4-(2-methoxyethoxy)benzamide] |
| 21 nM | CNC(=O)[C@H]1CC[C@H](NC[C@@]2(c3ccccc3)Cc3c(ccc(Cl)c3-c3c(F)cccc3C(N)=O)O2)CC1 (relative stereo) [Example 139a, 2-((2S,4S)-5-Chloro-2-((((trans)-4-(methylcarbamoyl)cyclohexyl)amino)methyl)-2-phenyl-2,3-dihydrobenzofuran-4-yl)-3-fluorobenzamide] |
| 9 nM | COc1ccc(C(N)=O)c(-c2c(Cl)ccc3c2[C@H](O)[C@@](CN)(c2ccccc2OC(F)(F)F)O3)c1F (atropisomer, axis not shown) [Example 93, 2-((2S,3S,4S)-2-(Aminomethyl)-5-chloro-3-hydroxy-2-(2-(trifluoromethoxy)phenyl)-2,3-dihydrobenzofuran-4-yl)-3-fluoro-4-methoxybenzamide] |
| 2 nM | C[C@H]1c2c(cc(F)c(Cl)c2-c2c(C(N)=O)ccc(OC(F)F)c2F)O[C@]1(CN)c1ccccc1 (atropisomer, axis not shown) [Example 105, 2-((2S,3S,4S)-2-(Aminomethyl)-5-chloro-6-fluoro-3-methyl-2-phenyl-2,3-dihydrobenzofuran-4-yl)-4-(difluoromethoxy)-3-fluorobenzamide] |
| 22 nM | COc1ccc(C(N)=O)c(-c2c(Cl)ccc3c2[C@H](O)[C@@](CN)(c2ccc[nH]c2=O)O3)c1F (atropisomer, axis not shown) [Example 92, 2-((2S,3S,4S)-2-(Aminomethyl)-5-chloro-3-hydroxy-2-(2-oxo-1,2-dihydropyridin-3-yl)-2,3-dihydrobenzofuran-4-yl)-3-fluoro-4-methoxybenzamide] |
